Patent US4382943A, “Anti-allergic aryl ether derivatives” (Boehringer Mannheim GmbH, priority 1980, dated 1983)
Where a name gives a salt, the structure may show the parent alone.

Test system: antigen induced bronchospasm in passively sensitized guinea pigs
Test: Inhibition of antigen induced bronchospasm (Br Sp) in passively sensitized guinea pigs
Format: in vivo, guinea pig
Settings: Cavia porcellus, po, 0.05 h, 60 min before antigen, 3 min after antigen; for inhibition in vivo at 0.38 mg/kg: 0.38 mg/kg p.o.; for inhibition in vivo at 0.75 mg/kg: 0.75 mg/kg p.o.
Procedure: Specifically, tests were run as follows: […] Equal volumes of saline solution of antigen (5 mg/ml) and Freund's complete adjuvant were emulsified and 0.15 ml injected into each hind foot of adult male guinea pigs (Davies and Johnson: Int. Arch. Allergy 41,648-654 (1971)). The animals were bled and the pooled serum stored at -20° C. Passive Sensitization Injections of 0.5 ml antiserum of 1:50 dilution were given i.v. 24-48 h before challenge. Guinea pigs were anaesthetized with phenobarbital sodium (40 mg/kg i.p.). Cannulae were tied into the trachea and the jugular vein and the lung inflated with a pump at a rate of 72 strokes/min and a constant stroke volume of 6-8 ml. Bronchospasm, provoked by injecting ovalbumin i.v. was measured as described by Konzett, H. and R. Rossler, "Versuchsanordnung su Untersuchungen an der Bronchialmuskulatur" Naunyn-Schmiedebergs, Arch. exp. Path. Pharmak. 195, 71-74 (1940) and modified by Collier, […] and M. Schachter: "The Bronchoconstrictor Action of Bradykinin in the Guinea-Pig" Brit. J. Pharmacol. 15, 290 (1960). The drugs were applied per os 60 minutes before the antigen. For calculation the following formula was used: % Bronchospasm (b-a)/(m-a)×100 b=Bronchospasm after antigen injection, measured in mm from tracing m=maximum height of tracing in mm with arm of the tracheacannula clamped a=pre injection height of the tracing in mm % inhibition of bronchospasm was calculated by comparing control groups with drug pretreated groups 3 minutes after antigen application.

| SMILES | inhibition in vivo at 0.38 mg/kg [%] | inhibition in vivo at 0.75 mg/kg [%] | also measured |
| --- | --- | --- | --- |
| O=C(NC1CCN(CCCOc2ccc3c4c(c(=O)oc3c2)CCC4)CC1)c1ccccc1 [Example 1, 7-[3-(4-Benzamidopiperidino)-propoxy]-2,3-dihydrocyclopenta[c][1]benzopyran-4(1H)one hydrochloride] | 47 | – | – |
| O=C(NC1CCN(CCCOc2ccc3c4c(c(=O)oc3c2)CCC4)CC1)c1ccc(F)cc1 [Example 2, 2,3-dihydro-7-{3-[4-(4-fluorobenzamido)-piperidino]-propoxy}-cyclopenta[c][1]benzopyran-4(1H)-one hydrochloride] | 67 | – | – |
| Cc1ccccc1C(=O)NC1CCN(CCCOc2ccc3c4c(c(=O)oc3c2)CCC4)CC1 [Example 4, 2,3-dihydro-7-{3-[4-(2-methylbenzamido)-piperidino]-propoxy}-cyclopenta[c][1]benzopyran-4(1H)-one] | – | 76 | – |
| O=C(Cc1ccccc1)NC1CCN(CCCOc2ccc3c4c(c(=O)oc3c2)CCC4)CC1 [Example 8, 2,3-dihydro-7-[3-(4-phenylacetamido-piperidino)-propoxy]-cyclopenta-[c][1]benzopyran-4(1H)-one] | – | 70 | – |
| CC(=O)c1c(OCCCN2CCC(NC(=O)c3ccccc3)CC2)ccc2c3c(c(=O)oc12)CCC3 [Example 14, 6-acetyl-7-[3-(4-benzamido-piperidino)-propoxy]-2,3-dihydro-cyclopenta[c][1]benzopyran-4(1H)-one] | 79 | – | – |
| O=C(NC1CCN(CCCOc2ccc3c4c(c(=O)oc3c2)CCCC4)CC1)c1ccc(F)cc1 [Example 17, 3-{3-[4-(4-fluorobenzamido)-piperidino]-propoxy}-7,8,9,10-tetrahydro-6H--dibenzo[b,d]pyran-6-one hydrochloride] | 58 | – | – |
| COc1ccc(C(=O)NC2CCN(CCCOc3ccc4c5c(c(=O)oc4c3)CCCC5)CC2)cc1 [Example 18, 3-{3-[4-(4-methoxybenzamido)-piperidino]-propoxy}-7,8,9,10-tetrahydro-6H--dibenzo[b,d]-pyran-6-one] | 35 | 87 | – |
| Cc1ccccc1C(=O)NC1CCN(CCCOc2ccc3c4c(c(=O)oc3c2)CCCC4)CC1 [Example 21, 3-{3-[4-(2-methyl-benzamido)-piperidino]-propoxy}-7,8,9,10-tetrahydro-6H--dibenzo[b,d]pyran-6-one] | 51 | 78 | – |
| CC(C)(C)NCC(O)c1cc(O)cc(O)c1 (stereo not drawn) [Terbutalin, reference compound] | – | – | inhibition in vivo at 0.1 mg/kg (0.1 mg/kg p.o.): 12%; inhibition in vivo at 1 mg/kg (1.0 mg/kg p.o.): 52% |
